Assay results from ChEMBL document CHEMBL4342421, “Current scenario of tetrazole hybrids for antibacterial activity” (Eur J Med Chem, 2019).
Converted amounts (≈) assume the structure as drawn. Values belong to the compound of their own block, whether it stands above or below them.

How the values were obtained:
[1] = tested on: Listeria monocytogenes; assay: Antimicrobial activity against Listeria monocytogenes; format: functional
[2] = tested on: Staphylococcus aureus; assay: Antimicrobial activity against Staphylococcus aureus; format: functional
[3] = tested on: Escherichia coli; assay: Antimicrobial activity against Escherichia coli; format: functional
[4] = tested on: Salmonella typhimurium; assay: Antimicrobial activity against Salmonella typhimurium; format: functional, Salmonella enterica subsp. enterica serovar Typhimurium; settings: Salmonella enterica
[5] = tested on: Proteus vulgaris; assay: Antimicrobial activity against Proteus vulgaris; format: functional
[6] = tested on: Nakaseomyces glabratus; assay: Antifungal activity against Candida glabrata; format: functional
[7] = tested on: Candida albicans; assay: Antifungal activity against Candida albicans; format: functional
[8] = tested on: Bacillus subtilis; assay: Antimicrobial activity against Bacillus subtilis; format: functional
[9] = tested on: Candida tropicalis; assay: Antifungal activity against Candida tropicalis; format: functional
[10] = tested on: Enterococcus faecalis; assay: Antimicrobial activity against Enterococcus faecalis; format: functional
[11] = tested on: Klebsiella pneumoniae; assay: Antimicrobial activity against Klebsiella pneumoniae; format: functional
[12] = tested on: Pseudomonas aeruginosa; assay: Antimicrobial activity against Pseudomonas aeruginosa; format: functional
[13] = tested on: Bacillus subtilis; assay: Potency index, ratio of streptomycin MIC to test compound MIC for antimicrobial activity against Bacillus subtilis; format: functional
[14] = tested on: Pseudomonas aeruginosa; assay: Potency index, ratio of streptomycin MIC to test compound MIC for antimicrobial activity against Pseudomonas aeruginosa; format: functional
[15] = tested on: Escherichia coli; assay: Potency index, ratio of streptomycin MIC to test compound MIC for antimicrobial activity against Escherichia coli; format: functional
[16] = tested on: Escherichia coli; assay: Antimicrobial activity against Escherichia coli assessed as zone of inhibition at 600 ug/ml after 24 hrs by disk diffusion method; format: functional; settings: read-out: IZ
[17] = tested on: Streptococcus pyogenes; assay: Antimicrobial activity against Streptococcus pyogenes; format: functional
[18] = tested on: Bacillus subtilis; assay: Antimicrobial activity against Bacillus subtilis assessed as zone of inhibition at 100 ug/ml; format: functional; settings: read-out: IZ
[19] = tested on: Staphylococcus aureus; assay: Antimicrobial activity against Staphylococcus aureus assessed as zone of inhibition at 100 ug/ml; format: functional; settings: read-out: IZ
[20] = tested on: Streptococcus; assay: Antimicrobial activity against Streptococcus assessed as zone of inhibition at 100 ug/ml; format: functional; settings: read-out: IZ
[21] = tested on: Escherichia coli; assay: Antimicrobial activity against Escherichia coli assessed as zone of inhibition at 100 ug/ml; format: functional; settings: read-out: IZ
[22] = tested on: Aspergillus flavus; assay: Antifungal activity against Aspergillus flavus; format: functional
[23] = tested on: Trichothecium roseum; assay: Antifungal activity against Trichothecium roseum; format: functional
[24] = tested on: Bacillus cereus; assay: Antimicrobial activity against Bacillus cereus; format: functional
[25] = tested on: Talaromyces purpureogenus; assay: Antifungal activity against Penicillium purpurogenum; format: functional
[26] = tested on: Bacillus subtilis; assay: Potency index, ratio of ciprofloxacin MIC to test compound MIC for antimicrobial activity against Bacillus subtilis; format: functional
[27] = tested on: Escherichia coli; assay: Potency index, ratio of ciprofloxacin MIC to test compound MIC for antimicrobial activity against Escherichia coli; format: functional
[28] = tested on: C6; assay: Anticancer activity against rat C6 cells; format: functional, cell-based
[29] = tested on: NIH3T3; assay: Cytotoxicity against mouse NIH/3T3 cells assessed as reduction in cell viability; format: cell-based

MIC [1]: 12.5 to 400 µg/mL (≈ 27.9 to 892 µM)
MIC [2]: 12.5 to 400 µg/mL (≈ 27.9 to 892 µM)
MIC [3]: 12.5 to 400 µg/mL (≈ 27.9 to 892 µM)
MIC [4]: 12.5 to 400 µg/mL (≈ 27.9 to 892 µM)
MIC [5]: 12.5 to 400 µg/mL (≈ 27.9 to 892 µM)
MIC [6]: 12.5 to 400 µg/mL (≈ 27.9 to 892 µM)
MIC [7]: 12.5 to 400 µg/mL (≈ 27.9 to 892 µM)
MIC [8]: 12.5 to 400 µg/mL (≈ 27.9 to 892 µM)
MIC [9]: 12.5 to 400 µg/mL (≈ 27.9 to 892 µM)
MIC [10]: 12.5 to 400 µg/mL (≈ 27.9 to 892 µM)
MIC [11]: 12.5 to 400 µg/mL (≈ 27.9 to 892 µM)
MIC [12]: 12.5 to 400 µg/mL (≈ 27.9 to 892 µM)
SMILES: Cn1nnnc1SCC(=O)Nc1ccc(-c2nc3cc(Cl)c(Cl)cc3n2C)cc1

MIC [2]: 100 µg/mL (≈ 296 µM)
MIC [3]: 100 µg/mL (≈ 296 µM)
MIC [8]: 100 µg/mL (≈ 296 µM)
MIC [12]: 100 µg/mL (≈ 296 µM)
SMILES: O=c1c(OCc2nnn[nH]2)c(-c2ccc(F)cc2)oc2ccccc12
Ratio [13]: 2 - 4
Ratio [14]: 2 - 4
Ratio [15]: 2 - 4

SMILES: c1ccc2c(c1)sc1nnnn12
zone of inhibition at 600 µg/mL [16]: 15 to 20 mm

SMILES: O=C(O)c1cn(C2CC2)c2cc(N3CCN(C(=O)Cn4nnnc4S)CC3)c(F)cc2c1=O
MIC [2]: 2 to 128 µg/mL (≈ 4.22 to 270 µM)
MIC [5]: 2 to 128 µg/mL (≈ 4.22 to 270 µM)
MIC [11]: 2 to 128 µg/mL (≈ 4.22 to 270 µM)
MIC [17]: 2 to 128 µg/mL (≈ 4.22 to 270 µM)

SMILES: Clc1cccc(-c2nnc(SCc3ccc(-c4ccccc4-c4nn[nH]n4)cc3)o2)c1
zone of inhibition at 100 µg/mL [18]: 20 to 27 mm
zone of inhibition at 100 µg/mL [19]: 20 to 27 mm
zone of inhibition at 100 µg/mL [20]: 20 to 27 mm
zone of inhibition at 100 µg/mL [21]: 20 to 27 mm

MIC [22]: 30 to 40 µg/mL (≈ 87.9 to 117 µM)
MIC [3]: 30 to 40 µg/mL (≈ 87.9 to 117 µM)
MIC [23]: 30 to 40 µg/mL (≈ 87.9 to 117 µM)
MIC [24]: 30 to 40 µg/mL (≈ 87.9 to 117 µM)
MIC [25]: 30 to 40 µg/mL (≈ 87.9 to 117 µM)
MIC [8]: 30 to 40 µg/mL (≈ 87.9 to 117 µM)
MIC [12]: 30 to 40 µg/mL (≈ 87.9 to 117 µM)
SMILES: N=C(N)Nc1nnn(Cc2cccc(Cn3nnc(C(=N)N)n3)c2)n1

MIC [3]: 8.58 µg/mL (≈ 17.2 µM)
MIC [8]: 8.41 µg/mL (≈ 16.8 µM)
SMILES: COc1cccc(OC)c1/C=C1\SC(=O)N(Cc2ccc(-c3ccccc3-c3nnn[nH]3)cc2)C1=O
Ratio [26]: >2.91
Ratio [27]: >2.91

IC50 [28]: 8.3 µg/mL (≈ 17.1 µM)
SMILES: O=C(CSc1nnnn1-c1ccccc1)N/N=c1\scc(-c2ccccc2)n1-c1ccccc1
IC50 [29]: 417 µg/mL (≈ 858 µM)
